For this assay, the system named is Phosphorylated Ribosomal Protein S6 (RPS6) in THP-1 cells. The experiment in a line: THP-1 RPS6 ELISA Assay. It counts as cell-based, Human. As to conditions: Table A1, THP-1 cells, 10 nM MCP-1, read-out: PI3Kγ_THP1_RPS6_ELISA IC50. The procedure: To measure the Phosphorylated Ribosomal Protein S6 (RPS6) in cell lysates, THP-1 cells (Human Acute Monocytic Leukemia) are purchased from ATCC (Manassas, Va.) and maintained in RPMI with 10% FBS (Gibco/Life Technologies, Carlsbad, Calif.). For the assay, THP-1 cells are serum starved overnight in RPMI, then plated in RPMI (2×10^5 cells/well in 90 μL) into 96-well flat-bottom tissue culture treated plates (Corning, Corning, N.Y.), in the presence or absence of a concentration range of test compounds. Covered plates are incubated for 2 hours at 37° C., 5% CO2 then treated with or without 10 nM MCP-1(MYBioSource, San Diego, Calif.) for 15 minutes at 37° C., 5% CO2. Plates are centrifuged at 1600 RPM and supernatants are removed. Cells are lysed in Lysis Buffer (Cell Signaling, Danvers, Mass.) with Protease Inhibitor (Calbiochem/EMD, Germany), PMSF (Sigma, St Louis Mo.), HALTS (Thermo Fisher, Rockford, Ill.) for 30 min on wet ice. Cell lysates are frozen at −80 OC before testing. The lysates are tested in the Human/Mouse/Rat Phospho-RPS6 ELISA (R&D Systems, Inc. Minn, Minn.). The plate is measured using a microplate reader (SpectraMax M5—Molecular Devices, LLC Sunnyvale, Calif.) set to 450 nm with a wavelength correction of 540. IC50 determination is performed by fitting the curve of inhibitor percent inhibition versus the log of the inhibitor concentration using the GraphPad Prism 5.0 software.
(In general: An ELISA detects its analyte on a solid surface through an enzyme-linked reagent.)

Where a name gives a salt, the structure may show the parent alone. Read-outs that look alike come from different tables or passages of the source. A value given as a limit tells only on which side of the number the result lay.

Broadly, the IC50 is the concentration that gives 50% inhibition.

Take `Cc1ccc(C(O)(C(N)=O)C(F)(F)F)cc1-c1cnc(N)c(C(=O)NC2CC3CCC2O3)n1` (single isomer, unassigned) [Example 29, 3-amino-6-(5-(3-amino-1,1,1-trifluoro-2-hydroxy-3-oxopropan-2-yl)-2-methylphenyl)-N-(7-oxabicyclo[2.2.1]heptan-2-yl)pyrazine-2-carboxamide]: the IC50 (Homo sapiens) was less than 100 nM. In the case of `Cc1ccc(C(O)(C(N)=O)C(F)(F)F)cc1-c1cnc(N)c(C(=O)NC2CC3CCC2O3)n1` (single isomer, unassigned) [Example 30, 3-amino-6-(5-(3-amino-1,1,1-trifluoro-2-hydroxy-3-oxopropan-2-yl)-2-methylphenyl)-N-(7-oxabicyclo[2.2.1]heptan-2-yl)pyrazine-2-carboxamide], the IC50 was less than 100 nM. Turning to `Cc1ccc(C(O)(C(N)=O)C(F)(F)F)cc1-c1cnc(N)c(C(=O)NCC(O)C(F)(F)F)n1` (single isomer, unassigned) [Example 43A, 3-amino-6-(5-(3-amino-1,1,1-trifluoro-2-hydroxy-3-oxopropan-2-yl)-2-methylphenyl)-N-(3,3,3-trifluoro-2-hydroxypropyl)pyrazine-2-carboxamide], the IC50 (Homo sapiens) is less than 100 nM. In the case of `Cc1ccc(C(O)(C(N)=O)C(F)(F)F)cc1-c1cnc(N)c(C(=O)NCC(O)C(F)(F)F)n1` (single isomer, unassigned) [Example 43B, 3-amino-6-(5-(3-amino-1,1,1-trifluoro-2-hydroxy-3-oxopropan-2-yl)-2-methylphenyl)-N-(3,3,3-trifluoro-2-hydroxypropyl)pyrazine-2-carboxamide], the IC50 is less than 100 nM. For the compound `Cc1ccc(C(O)(C(N)=O)C(F)(F)F)cc1-c1cnc(N)c(C(=O)NCC(C)(C)O)n1` (stereo not shown) [Example 1, 3-Amino-6-(5-(3-amino-1,1,1-trifluoro-2-hydroxy-3-oxopropan-2-yl)-2-methylphenyl)-N-(2-hydroxy-2-methylpropyl)pyrazine-2-carboxamide], the IC50 (Homo sapiens) is less than 100 nM. On the same count and under the same terms, then `Cc1ccc(C(O)(C(N)=O)C(F)(F)F)cc1-c1cnc(N)c(C(=O)NC2CCOCC2)n1` (stereo not shown) [Example 2, 3-amino-6-(5-(3-amino-1,1,1-trifluoro-2-hydroxy-3-oxopropan-2-yl)-2-methylphenyl)-N-(tetrahydro-2H-pyran-4-yl)pyrazine-2-carboxamide trifluoroacetate], with less than 100 nM; and `Cc1ccc(C(O)(C(N)=O)C(F)(F)F)cc1-c1cnc(N)c(C(=O)NCC2(C#N)CC2)n1` (stereo not shown) [Example 4, 3-amino-6-(5-(3-amino-1,1,1-trifluoro-2-hydroxy-3-oxopropan-2-yl)-2-methylphenyl)-N-((1-cyanocyclopropyl)methyl)pyrazine-2-carboxamide trifluoroacetate], with less than 100 nM. `Cc1ccc(C(O)(C(N)=O)C(F)(F)F)cc1-c1cnc(N)c(C(=O)NC(C)C)n1` (stereo not shown) [Example 5, 3-Amino-6-(5-(3-amino-1,1,1-trifluoro-2-hydroxy-3-oxopropan-2-yl)-2-methylphenyl)-N-isopropylpyrazine-2-carboxamide trifluoroacetate]: the IC50 (Homo sapiens) is less than 100 nM.

On to `Cc1ccc(C(O)(C(N)=O)C(F)(F)F)cc1-c1cnc(N)c(C(=O)NC2CCC(F)(F)CC2)n1` (stereo not shown) [Example 6, 3-amino-6-(5-(3-amino-1,1,1-trifluoro-2-hydroxy-3-oxopropan-2-yl)-2-methylphenyl)-N-(4,4-difluorocyclohexyl)pyrazine-2-carboxamide trifluoroacetate], for which the IC50 (Homo sapiens) was less than 100 nM. Consider `CCNC(=O)c1nc(-c2cc(C(O)(C(N)=O)C(F)(F)F)ccc2C)cnc1N` (stereo not shown) [Example 7, 3-Amino-6-(5-(3-amino-1,1,1-trifluoro-2-hydroxy-3-oxopropan-2-yl)-2-methylphenyl)-N-ethylpyrazine-2-carboxamide trifluoroacetate], for which the concentration for half-maximal inhibition (IC50) (Homo sapiens) was less than 100 nM. Still for that read-out and setting: in the case of `Cc1ccc(C(O)(C(N)=O)C(F)(F)F)cc1-c1cnc(N)c(C(=O)N[C@@H](C)CC#N)n1` (stereo partly drawn) [Example 8, 3-amino-6-(5-(3-amino-1,1,1-trifluoro-2-hydroxy-3-oxopropan-2-yl)-2-methylphenyl)-N-((S)-1-cyanopropan-2-yl)pyrazine-2-carboxamide trifluoroacetate] it was less than 100 nM. As to `Cc1ccc(C(O)(C(N)=O)C(F)(F)F)cc1-c1cnc(N)c(C(=O)N[C@@H]2CCCOC2)n1` (stereo partly drawn) [Example 9, 3-amino-6-(5-(3-amino-1,1,1-trifluoro-2-hydroxy-3-oxopropan-2-yl)-2-methylphenyl)-N-((R)-tetrahydro-2H-pyran-3-yl)pyrazine-2-carboxamide trifluoroacetate], under “Homo sapiens”, the IC50 was less than 100 nM. The same measure, in the same setting: then `Cc1ccc(C(O)(C(N)=O)C(F)(F)F)cc1-c1cnc(N)c(C(=O)N[C@H]2CCCOC2)n1` (stereo partly drawn) [Example 10, 3-amino-6-(5-(3-amino-1,1,1-trifluoro-2-hydroxy-3-oxopropan-2-yl)-2-methylphenyl)-N-((S)-tetrahydro-2H-pyran-3-yl)pyrazine-2-carboxamide trifluoroacetate], with less than 100 nM.

Consider `Cc1ccc(C(O)(C(N)=O)C(F)(F)F)cc1-c1cnc(N)c(C(=O)N[C@H]2CCOC2)n1` (stereo partly drawn) [Example 11, 3-amino-6-(5-(3-amino-1,1,1-trifluoro-2-hydroxy-3-oxopropan-2-yl)-2-methylphenyl)-N-((S)-tetrahydrofuran-3-yl)pyrazine-2-carboxamide trifluoroacetate], for which, under “Homo sapiens”, the IC50 was less than 100 nM. Regarding `Cc1ccc(C(O)(C(N)=O)C(F)(F)F)cc1-c1cnc(N)c(C(=O)N[C@@H](C)CO)n1` (stereo partly drawn) [Example 12, 3-amino-6-(5-(3-amino-1,1,1-trifluoro-2-hydroxy-3-oxopropan-2-yl)-2-methylphenyl)-N-((S)-1-hydroxypropan-2-yl)pyrazine-2-carboxamide], the IC50 (Homo sapiens) is less than 100 nM.

Turning to `Cc1ccc(C(O)(C(N)=O)C(F)(F)F)cc1-c1cnc(N)c(C(=O)NC(C)(C)CO)n1` (stereo not shown) [Example 13, 3-Amino-6-(5-(3-amino-1,1,1-trifluoro-2-hydroxy-3-oxopropan-2-yl)-2-methylphenyl)-N-(1-hydroxy-2-methylpropan-2-yl)pyrazine-2-carboxamide], the IC50 (Homo sapiens) was less than 100 nM. Take `Cc1ccc(C(O)(C(N)=O)C(F)(F)F)cc1-c1cnc(N)c(C(=O)NCCC#N)n1` (stereo not shown) [Example 14, 3-amino-6-(5-(3-amino-1,1,1-trifluoro-2-hydroxy-3-oxopropan-2-yl)-2-methylphenyl)-N-(2-cyanoethyl)pyrazine-2-carboxamide trifluoroacetate]: the IC50 (Homo sapiens) was less than 100 nM.

As for `Cc1ccc(C(O)(C(N)=O)C(F)(F)F)cc1-c1cnc(N)c(C(=O)NCC(C)(C)C#N)n1` (stereo not shown) [Example 15, 3-amino-6-(5-(3-amino-1,1,1-trifluoro-2-hydroxy-3-oxopropan-2-yl)-2-methylphenyl)-N-(2-cyano-2-methylpropyl)pyrazine-2-carboxamide trifluoroacetate], for the setting “Homo sapiens”, the IC50 is less than 100 nM. For `Cc1ccc(C(O)(C(N)=O)C(F)(F)F)cc1-c1cnc(N)c(C(=O)NCC2(C#N)CCC2)n1` (stereo not shown) [Example 16, 3-amino-6-(5-(3-amino-1,1,1-trifluoro-2-hydroxy-3-oxopropan-2-yl)-2-methylphenyl)-N-((1-cyanocyclobutyl)methyl)pyrazine-2-carboxamide trifluoroacetate], for the setting “Homo sapiens”, the IC50 was less than 100 nM.
